Data reported in ChEMBL document CHEMBL4311992, “Discovery of 3-(((9H-purin-6-yl)amino)methyl)-4,6-dimethylpyridin-2(1H)-one derivatives as novel tubulin polymerization inhibitors for treatment of cancer” (Eur J Med Chem, 2019).

Key:
[1] = target: Leukocyte tyrosine kinase receptor (Homo sapiens) (UniProt P29376); experiment: Inhibition of recombinant human LTK (450 to end residues) assessed as residual activity at 10 uM using GEEPLYWSFPAKKK as substrate measured after 40 mins in presence of [gamma33P]ATP by scintillation counting method
Leukocyte tyrosine kinase receptor (Homo sapiens), sequence (P29376 whole entry): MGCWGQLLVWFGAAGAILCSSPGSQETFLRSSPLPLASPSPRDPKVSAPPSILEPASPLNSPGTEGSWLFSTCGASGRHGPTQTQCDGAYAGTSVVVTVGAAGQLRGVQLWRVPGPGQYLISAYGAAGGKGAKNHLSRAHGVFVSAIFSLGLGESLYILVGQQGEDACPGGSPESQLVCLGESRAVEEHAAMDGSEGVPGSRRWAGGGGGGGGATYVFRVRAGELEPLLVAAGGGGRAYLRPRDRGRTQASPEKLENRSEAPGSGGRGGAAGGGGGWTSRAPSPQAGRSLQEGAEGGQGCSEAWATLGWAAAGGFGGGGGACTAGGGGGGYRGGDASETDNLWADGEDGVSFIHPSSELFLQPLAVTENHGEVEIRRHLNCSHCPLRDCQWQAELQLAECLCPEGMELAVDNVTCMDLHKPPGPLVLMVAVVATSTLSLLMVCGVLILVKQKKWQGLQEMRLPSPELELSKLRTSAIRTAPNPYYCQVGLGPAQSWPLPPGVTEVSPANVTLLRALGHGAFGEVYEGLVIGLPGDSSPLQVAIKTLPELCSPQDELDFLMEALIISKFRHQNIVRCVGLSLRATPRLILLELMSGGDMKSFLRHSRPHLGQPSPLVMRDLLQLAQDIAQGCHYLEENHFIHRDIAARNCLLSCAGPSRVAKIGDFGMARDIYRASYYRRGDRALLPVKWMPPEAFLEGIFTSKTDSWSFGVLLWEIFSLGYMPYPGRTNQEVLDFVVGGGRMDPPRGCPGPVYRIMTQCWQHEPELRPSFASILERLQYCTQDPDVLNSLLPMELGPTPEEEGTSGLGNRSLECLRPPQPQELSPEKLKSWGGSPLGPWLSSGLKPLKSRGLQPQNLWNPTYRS

Homo sapiens [2] = organism: Homo sapiens; experiment: Inhibition of recombinant full-length human PKBalpha S478G mutant assessed as residual activity at 10 uM using GRPRTSSFAEGKK as substrate measured after 40 mins in presence of [gamma33P]ATP by scintillation counting method
[3] = target: Tyrosine-protein kinase FRK (Homo sapiens) (UniProt P42685); experiment: Inhibition of human PTK5 (218 to end residues) using GGEEEEYFELVKKKK as substrate measured after 40 mins in presence of [gamma33P]ATP by scintillation counting method; design: scale not given: the % may be the effect or the level left
[4] = target: Myosin light chain kinase, smooth muscle (Homo sapiens) (UniProt Q15746); experiment: Inhibition of recombinant human MLCK (1425 to 1771 residues) assessed as residual activity at 10 uM using calmodulin as substrate measured after 40 mins in presence of [gamma33P]ATP by scintillation counting method
SW-620 = experiment: Induction of apoptosis in human SW620 cells assessed as necrotic cells at 25 nM measured after 48 hrs by Annexin V-FITC/propidium iodide staining-based flow cytometry (reference value: 2.71%); type: functional
[5] = target: Tau-tubulin kinase 1 (Homo sapiens) (UniProt Q5TCY1); experiment: Inhibition of human TTBK1 (1 to 479 residues) using Casein as substrate measured after 40 mins in presence of [gamma33P]ATP by scintillation counting method; design: scale not given: the % may be the effect or the level left
Tau-tubulin kinase 1 (Homo sapiens), sequence (Q5TCY1 whole entry, the tested form may be a part): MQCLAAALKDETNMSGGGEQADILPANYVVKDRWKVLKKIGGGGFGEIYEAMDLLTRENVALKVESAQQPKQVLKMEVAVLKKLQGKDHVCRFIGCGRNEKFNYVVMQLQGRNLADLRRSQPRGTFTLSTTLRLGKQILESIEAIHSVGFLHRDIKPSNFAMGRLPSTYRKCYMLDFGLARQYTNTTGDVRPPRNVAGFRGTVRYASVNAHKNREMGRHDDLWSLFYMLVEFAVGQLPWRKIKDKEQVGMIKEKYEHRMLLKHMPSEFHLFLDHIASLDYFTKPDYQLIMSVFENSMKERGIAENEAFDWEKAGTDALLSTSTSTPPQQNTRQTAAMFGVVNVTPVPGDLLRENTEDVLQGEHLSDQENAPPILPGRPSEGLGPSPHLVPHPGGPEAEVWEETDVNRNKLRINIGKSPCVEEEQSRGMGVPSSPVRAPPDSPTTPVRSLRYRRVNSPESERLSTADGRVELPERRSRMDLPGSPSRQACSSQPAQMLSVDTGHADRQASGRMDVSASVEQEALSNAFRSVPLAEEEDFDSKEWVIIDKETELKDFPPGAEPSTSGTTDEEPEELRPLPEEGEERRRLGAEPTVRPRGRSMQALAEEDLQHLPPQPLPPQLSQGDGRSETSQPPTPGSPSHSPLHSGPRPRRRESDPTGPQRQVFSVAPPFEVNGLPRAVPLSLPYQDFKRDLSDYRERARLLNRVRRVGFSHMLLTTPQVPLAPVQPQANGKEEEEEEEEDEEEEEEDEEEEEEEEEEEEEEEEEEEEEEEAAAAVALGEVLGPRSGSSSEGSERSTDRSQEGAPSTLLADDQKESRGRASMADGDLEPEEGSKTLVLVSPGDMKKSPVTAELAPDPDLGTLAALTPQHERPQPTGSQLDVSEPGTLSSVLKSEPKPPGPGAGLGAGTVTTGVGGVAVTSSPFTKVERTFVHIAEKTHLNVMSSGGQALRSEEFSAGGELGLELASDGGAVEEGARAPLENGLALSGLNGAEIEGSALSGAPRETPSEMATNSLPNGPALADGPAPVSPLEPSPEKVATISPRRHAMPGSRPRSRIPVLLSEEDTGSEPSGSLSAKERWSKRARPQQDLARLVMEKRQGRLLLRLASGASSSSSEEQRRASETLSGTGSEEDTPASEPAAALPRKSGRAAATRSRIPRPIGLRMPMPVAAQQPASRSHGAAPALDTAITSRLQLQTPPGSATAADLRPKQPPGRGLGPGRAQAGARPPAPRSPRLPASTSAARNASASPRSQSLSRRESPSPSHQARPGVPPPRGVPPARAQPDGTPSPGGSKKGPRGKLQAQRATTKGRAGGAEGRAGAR

[6] = target: Inhibitor of nuclear factor kappa-B kinase subunit alpha (Homo sapiens) (UniProt O15111); experiment: Inhibition of recombinant full-length human IKKalpha ([…]) assessed as residual activity at 10 uM using peptide substrate measured after 40 mins in presence of [gamma33P]ATP by scintillation counting method
[7] = target: Tyrosine-protein kinase Lyn (Homo sapiens) (UniProt P07948); experiment: Inhibition of recombinant full-length human Lyn assessed as residual activity at 10 uM using poly(Glu, Tyr) 4:1 as substrate measured after 40 mins in presence of [gamma33P]ATP by scintillation counting method
[8] = target: Cyclin-dependent kinase-like 3 (Homo sapiens) (UniProt Q8IVW4); experiment: Inhibition of recombinant human full-length CDKL3 (1 to 303 residues) assessed as residual activity at 10 uM using RRRFRPASPLRGP as substrate measured after 120 mins in presence of [gamma33P]ATP by scintillation counting method
[9] = target: Dual specificity mitogen-activated protein kinase kinase 6 (Homo sapiens) (UniProt P52564); experiment: Inhibition of recombinant human MKK6 (4 to end residues) assessed as residual activity at 10 uM using unactive SAPK2a as substrate measured after 40 mins in presence of [gamma33P]ATP by scintillation counting method
Dual specificity mitogen-activated protein kinase kinase 6 (Homo sapiens), sequence (P52564 whole entry): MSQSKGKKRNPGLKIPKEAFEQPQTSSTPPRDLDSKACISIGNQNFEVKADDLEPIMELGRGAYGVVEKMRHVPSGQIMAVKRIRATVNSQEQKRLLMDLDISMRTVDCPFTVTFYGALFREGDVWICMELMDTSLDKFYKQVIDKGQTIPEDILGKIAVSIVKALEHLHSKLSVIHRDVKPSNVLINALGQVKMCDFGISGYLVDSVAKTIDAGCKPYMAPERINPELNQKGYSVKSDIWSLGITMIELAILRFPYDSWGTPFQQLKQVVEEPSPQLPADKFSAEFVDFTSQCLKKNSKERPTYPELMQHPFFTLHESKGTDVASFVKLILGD

[10] = target: Vascular endothelial growth factor receptor 1 (Homo sapiens) (UniProt P17948); experiment: Inhibition of recombinant human Flt1 (783 to end residues) assessed as residual activity at 10 uM using KKKSPGEYVNIEFG as substrate measured after 40 mins in presence of [gamma33P]ATP by scintillation counting method
Vascular endothelial growth factor receptor 1 (Homo sapiens), sequence (P17948 whole entry): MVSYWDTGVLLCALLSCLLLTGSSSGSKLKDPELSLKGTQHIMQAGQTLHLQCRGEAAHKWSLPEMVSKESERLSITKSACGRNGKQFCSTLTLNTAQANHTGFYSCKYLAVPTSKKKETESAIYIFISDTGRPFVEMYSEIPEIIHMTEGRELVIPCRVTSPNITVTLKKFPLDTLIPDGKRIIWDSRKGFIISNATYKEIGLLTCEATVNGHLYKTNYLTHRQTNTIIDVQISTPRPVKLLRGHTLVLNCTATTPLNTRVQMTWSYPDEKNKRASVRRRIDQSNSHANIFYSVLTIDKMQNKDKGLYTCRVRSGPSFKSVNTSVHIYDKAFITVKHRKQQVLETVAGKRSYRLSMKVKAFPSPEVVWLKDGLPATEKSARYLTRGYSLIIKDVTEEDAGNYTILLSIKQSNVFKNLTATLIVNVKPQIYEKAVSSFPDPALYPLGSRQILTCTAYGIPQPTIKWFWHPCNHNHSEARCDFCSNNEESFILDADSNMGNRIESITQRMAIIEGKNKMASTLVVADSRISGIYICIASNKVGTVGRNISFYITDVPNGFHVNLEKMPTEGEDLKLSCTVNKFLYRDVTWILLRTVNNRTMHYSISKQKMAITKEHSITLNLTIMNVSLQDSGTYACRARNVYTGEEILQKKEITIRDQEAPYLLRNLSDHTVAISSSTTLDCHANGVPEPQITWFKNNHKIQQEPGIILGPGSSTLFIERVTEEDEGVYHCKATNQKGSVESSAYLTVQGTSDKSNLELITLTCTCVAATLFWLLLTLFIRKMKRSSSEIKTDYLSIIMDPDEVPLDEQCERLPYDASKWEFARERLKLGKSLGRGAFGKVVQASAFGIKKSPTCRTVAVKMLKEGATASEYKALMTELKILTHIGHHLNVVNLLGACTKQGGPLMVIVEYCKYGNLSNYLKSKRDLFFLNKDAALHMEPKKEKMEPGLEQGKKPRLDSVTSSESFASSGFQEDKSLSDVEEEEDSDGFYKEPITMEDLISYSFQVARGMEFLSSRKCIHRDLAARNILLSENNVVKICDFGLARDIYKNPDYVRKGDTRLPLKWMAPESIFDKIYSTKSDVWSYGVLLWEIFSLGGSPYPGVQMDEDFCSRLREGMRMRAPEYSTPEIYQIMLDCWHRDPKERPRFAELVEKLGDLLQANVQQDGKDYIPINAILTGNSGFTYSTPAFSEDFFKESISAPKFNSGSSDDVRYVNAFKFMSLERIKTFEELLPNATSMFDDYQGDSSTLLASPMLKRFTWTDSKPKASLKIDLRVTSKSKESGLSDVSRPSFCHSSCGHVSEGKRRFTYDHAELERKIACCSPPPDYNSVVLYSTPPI

[11] = target: Aurora kinase B (Homo sapiens) (UniProt Q96GD4); experiment: Inhibition of recombinant full-length human AURKB assessed as residual activity at 10 uM using AKRRRLSSLRA as substrate measured after 40 mins in presence of [gamma33P]ATP by scintillation counting method
Aurora kinase B (Homo sapiens), sequence (Q96GD4 whole entry): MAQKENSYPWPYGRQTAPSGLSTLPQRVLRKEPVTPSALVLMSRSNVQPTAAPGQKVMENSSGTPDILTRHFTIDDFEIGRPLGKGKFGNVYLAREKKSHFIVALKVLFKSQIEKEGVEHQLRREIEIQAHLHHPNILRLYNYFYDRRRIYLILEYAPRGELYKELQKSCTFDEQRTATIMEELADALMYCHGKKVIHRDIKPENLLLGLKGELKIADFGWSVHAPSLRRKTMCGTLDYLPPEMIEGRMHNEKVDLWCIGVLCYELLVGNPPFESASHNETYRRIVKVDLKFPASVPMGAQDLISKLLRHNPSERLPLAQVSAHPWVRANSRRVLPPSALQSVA

[12] = target: Dual specificity tyrosine-phosphorylation-regulated kinase 2 (Homo sapiens) (UniProt Q92630); experiment: Inhibition of recombinant full-length human DYRK2 assessed as residual activity at 10 uM using casein as substrate measured after 40 mins in presence of [gamma33P]ATP by scintillation counting method
[13] = target: Calcium/calmodulin-dependent protein kinase type II subunit beta (Homo sapiens) (UniProt Q13554); experiment: Inhibition of recombinant full-length human CaMK2beta (1 to 315 residues) assessed as residual activity at 10 uM using calmodulin as substrate measured after 40 mins in presence of [gamma33P]ATP by scintillation counting method
[14] = target: Serine/threonine-protein kinase NIM1 (Homo sapiens) (UniProt Q8IY84); experiment: Inhibition of recombinant full-length human NIM1 assessed as residual activity at 10 uM using KKKVSRSGLYRSPSMPENLNRPR as substrate measured after 40 mins in presence of [gamma33P]ATP by scintillation counting method
Serine/threonine-protein kinase NIM1 (Homo sapiens), sequence (Q8IY84 whole entry): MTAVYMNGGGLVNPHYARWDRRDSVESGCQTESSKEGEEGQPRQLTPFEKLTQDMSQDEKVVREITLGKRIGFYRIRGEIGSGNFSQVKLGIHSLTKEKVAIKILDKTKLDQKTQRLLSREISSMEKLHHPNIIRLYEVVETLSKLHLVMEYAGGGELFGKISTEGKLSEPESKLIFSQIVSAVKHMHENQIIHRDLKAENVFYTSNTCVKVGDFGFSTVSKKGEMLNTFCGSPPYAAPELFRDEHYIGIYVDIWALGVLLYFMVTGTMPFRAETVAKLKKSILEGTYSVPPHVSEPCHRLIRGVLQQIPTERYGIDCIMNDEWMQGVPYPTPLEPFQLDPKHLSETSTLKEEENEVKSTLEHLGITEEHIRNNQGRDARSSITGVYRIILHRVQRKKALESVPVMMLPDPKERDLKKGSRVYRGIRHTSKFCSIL

[15] = target: Ephrin type-B receptor 4 (Homo sapiens) (UniProt P54760); experiment: Inhibition of recombinant human EphB4 (561 to end residues) assessed as residual activity at 10 uM using poly (Glu, Tyr) 4:1 as substrate measured after 40 mins in presence of [gamma33P]ATP by scintillation counting method
[16] = target: Tyrosine-protein kinase JAK3 (Homo sapiens) (UniProt P52333); experiment: Inhibition of recombinant human JAK3 (781 to end residues) assessed as residual activity at 10 uM using GGEEEEYFELVKKKK as substrate measured after 40 mins in presence of [gamma33P]ATP by scintillation counting method
Homo sapiens [17] = organism: Homo sapiens; experiment: Inhibition of human Ros V2262A mutant (1883 to end residues) using KKKSPGEYVNIEFG as substrate measured after 40 mins in presence of [gamma33P]ATP by scintillation counting method; design: scale not given: the % may be the effect or the level left
[18] = target: Mast/stem cell growth factor receptor Kit (Homo sapiens) (UniProt P10721); experiment: Inhibition of recombinant human c-Kit (544 to end residues) assessed as residual activity at 10 uM using poly(Glu, Tyr) 4:1 as substrate measured after 40 mins in presence of [gamma33P]ATP by scintillation counting method
[19] = target: Serine/threonine-protein kinase 17A (Homo sapiens) (UniProt Q9UEE5); experiment: Inhibition of recombinant full-length human DRAK1 assessed as residual activity at 10 uM using KKLNRTLSFAEPG as substrate measured after 40 mins in presence of [gamma33P]ATP by scintillation counting method
Serine/threonine-protein kinase 17A (Homo sapiens), sequence (Q9UEE5 whole entry, the tested form may be a part): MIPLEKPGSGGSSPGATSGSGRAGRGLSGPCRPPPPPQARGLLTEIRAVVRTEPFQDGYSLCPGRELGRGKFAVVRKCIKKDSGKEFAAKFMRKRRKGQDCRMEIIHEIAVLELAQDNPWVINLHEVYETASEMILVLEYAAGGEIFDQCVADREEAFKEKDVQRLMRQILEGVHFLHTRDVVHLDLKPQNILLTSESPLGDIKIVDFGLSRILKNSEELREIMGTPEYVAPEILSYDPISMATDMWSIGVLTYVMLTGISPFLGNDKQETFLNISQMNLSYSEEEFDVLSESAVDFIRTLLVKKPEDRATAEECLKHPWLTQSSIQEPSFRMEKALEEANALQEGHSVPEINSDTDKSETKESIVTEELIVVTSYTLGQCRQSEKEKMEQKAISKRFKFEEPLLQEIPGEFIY

[20] = target: Mitogen-activated protein kinase kinase kinase kinase 1 (Homo sapiens) (UniProt Q92918); experiment: Inhibition of recombinant human HPK1 (1 to 346 residues) assessed as residual activity at 10 uM using myelin basic protein as substrate measured after 40 mins in presence of [gamma33P]ATP by scintillation counting method
HCT-116 = experiment: Induction of apoptosis in human HCT116 cells assessed as viable cells at 25 nM measured after 48 hrs by Annexin V-FITC/propidium iodide staining-based flow cytometry (reference value: 94.5%); type: functional; conditions: HCT-116, 48 h, read-out: Activity
[21] = Toxicity in Balb/c mouse spleen at 80 mg/kg after 4 weeks by hematoxylin and eosin staining-based assay; type: organism-based; conditions: in vivo, 672 h
[22] = target: Insulin receptor (Homo sapiens) (UniProt P06213); experiment: Inhibition of recombinant human activated IR (1005 to 1310 residues) assessed as residual activity at 10 uM using KKKSPGEYVNIEFG as substrate measured after 40 mins in presence of [gamma33P]ATP by scintillation counting method

Which Activity [1] does the source give for `Cc1cc(C)c(CNc2nc(Cl)nc3c2ncn3C2CCCC2)c(=O)[nH]1` here?
Its Activity is 102%.

What about the Activity (Homo sapiens [2]) of the same compound?
Its Activity is 105%.

And the Activity [3]?
The Activity was 102%.

What about the Activity [4] of the same compound?
The Activity was 94%.

And the Activity (SW-620)?
Its Activity is 2.71%.

And the Activity [5]?
Its Activity is 102%.

What about the Activity [6] of the same compound?
The Activity was 88.5%.

What about the Activity [7] of the same compound?
Its Activity is 119%.

What about the Activity [8] of the same compound?
Its Activity is 126%.

And the Activity [9]?
Its Activity is 114%.

And the Activity [10]?
The Activity was 97.5%.

What about the Activity [11] of the same compound?
Its Activity is 143%.

And the Activity [12]?
Its Activity is 113%.

And the Activity [13]?
The Activity was 99.5%.

What about the Activity [14] of the same compound?
The Activity was 106%.

What about the Activity [15] of the same compound?
The Activity was 102%.

And the Activity [16]?
Its Activity is 90%.

And the Activity (Homo sapiens [17])?
The Activity was 102%.

What about the Activity [18] of the same compound?
Its Activity is 99.5%.

What about the Activity [19] of the same compound?
The Activity was 91.5%.

What about the Activity [20] of the same compound?
The Activity was 106%.

What about the viability at 0.025 µM (HCT-116) of the same compound?
The viability at 0.025 µM was 95.9%.

And the Activity [21]?
The Activity was “Non-Toxic”.

And the Activity [22]?
Its Activity is 101%.
